Assays:
P. aeruginosa = experiment: Microbial spectrum, P. aeruginosa; format: cell-based, Pseudomonas aeruginosa; conditions: clavulanate 4 μg/mL; Table S4
[1] = In vitro plasma stability, cynomolgus monkey plasma; conditions: for Plasma stability % Remaining, Monkey: 2 μM, 37 °C, time point 120 min
Mtb H37Rv [2] = experiment: MIC90 against replicating (R) Mtb H37Rv, with or without clavulanate; format: cell-based, Mycobacterium tuberculosis; conditions: Table S4; for Mtb H37Rv R + CLAV (MIC90): clavulanate 4 μg/mL; for Mtb H37Rv R (MIC90): no clavulanate
Mtb H37Rv [3] = experiment: MIC90 against nonreplicating (NR, 4-stress) Mtb H37Rv, with or without clavulanate; format: cell-based, Mycobacterium tuberculosis; conditions: 4-stress nonreplicating, Table S4; for Mtb H37Rv NR + CLAV (MIC90): clavulanate 4 μg/mL; for Mtb H37Rv NR (MIC90): no clavulanate
S. aureus = experiment: Microbial spectrum, S. aureus; format: cell-based, Staphylococcus aureus; conditions: clavulanate 4 μg/mL; Table S4
[4] = In vitro plasma stability, SD rat plasma; conditions: 37 °C, time point 120 min; for Plasma stability % Remaining, Rat: 2 μM
E. coli = experiment: Microbial spectrum, E. coli; format: cell-based, Escherichia coli; conditions: clavulanate 4 μg/mL; Table S4
[5] = In vitro plasma stability, beagle dog plasma; conditions: for Plasma stability % Remaining, Dog: 2 μM, 37 °C, time point 120 min
C. albicans = experiment: Microbial spectrum, C. albicans; format: cell-based, Candida albicans; conditions: no clavulanate; Table S4
[6] = In vitro plasma stability, CD-1 mouse plasma; conditions: 37 °C, time point 120 min; for Plasma stability % Remaining, Mouse: 2 μM
[7] = In vitro plasma stability, human plasma; conditions: 37 °C, time point 120 min; for Plasma stability % Remaining, Human: 2 μM
[8] = Stability in simulated gastric fluid (SGF); conditions: for SGF Stability, % remaining, 1h / SGF Stability, % remaining, 24h: 10 μM, pH 1.2, room temperature
[9] = Stability in fasted simulated intestinal fluid (FaSSIF); conditions: pH 6.5, room temperature; for FaSSIF Stability, % remaining, 6h / FaSSIF Stability, % remaining, 24h: 10 μM
[10] = Caco-2 permeability / efflux transporter substrate; conditions: human
Caco-2 cells = experiment: Caco-2 permeability / efflux transporter substrate; conditions: for Caco-2 Mean Papp A to B / Caco-2 Mean Papp B to A: 3 μM, pH 7.4, 120 min; for Caco-2 Rank Papp / Caco-2 Mean Recovery % A to B / Caco-2 Mean Recovery % B to A / Caco-2 Efflux Ratio / Efflux Transporter Substrate: Caco-2
plasma proteins [11] = experiment: Plasma protein binding (equilibrium dialysis), SD rat; conditions: 2 μM
plasma proteins [12] = experiment: Plasma protein binding (equilibrium dialysis), beagle dog; conditions: 2 μM
plasma proteins [13] = experiment: Plasma protein binding (equilibrium dialysis), human; conditions: 2 μM
plasma proteins [14] = experiment: Plasma protein binding (equilibrium dialysis), CD-1 mouse; conditions: 2 μM
plasma proteins [15] = experiment: Plasma protein binding (equilibrium dialysis), cynomolgus monkey; conditions: 2 μM
[16] = simulated gastric fluid (SGF), pH 1.2

| Compound | P.aeruginosa R + CLAV (MIC90) (P. aeruginosa) | Plasma stability % Remaining, Monkey [1] | Mtb H37Rv R + CLAV (MIC90) (Mtb H37Rv [2]) | Mtb H37Rv R (MIC90) (Mtb H37Rv [2]) | Mtb H37Rv NR + CLAV (MIC90) (Mtb H37Rv [3]) | Mtb H37Rv NR (MIC90) (Mtb H37Rv [3]) | S.aureus R + CLAV (MIC90) (S. aureus) | Plasma stability % Remaining, Rat [4] | E.coli R + CLAV (MIC90) (E. coli) | Plasma stability % Remaining, Dog [5] | C.albicans R (MIC90) (C. albicans) | Plasma stability % Remaining, Mouse [6] | Plasma stability % Remaining, Human [7] | SGF Stability, % remaining, 1h [8] | SGF Stability, % remaining, 24h [8] | FaSSIF Stability, % remaining, 6h [9] | FaSSIF Stability, % remaining, 24h [9] | Caco-2 Rank Papp (Caco-2 cells) | Caco-2 Mean Papp A to B (Caco-2 cells) | Caco-2 Mean Papp B to A (Caco-2 cells) | also measured |
| --- | --- | --- | --- | --- | --- | --- | --- | --- | --- | --- | --- | --- | --- | --- | --- | --- | --- | --- | --- | --- | --- |
| CCc1nnc(SCC2=C(C(=O)O)N3C(=O)[C@@H](NC(=O)Cc4ccc(C5=NCCCN5)cc4)[C@H]3SC2)s1 [TBBL-0000317] | > 100 µM | 13.4% | 1.1 µM | 22.3 µM | > 100 µM | > 100 µM | 2.1 µM | 2.4% | > 100 µM | 31.5% | > 100 µM | 13.3% | 17.4% | 90.44% | 79.32% | 94.96% | 90.38% | – | – | – | – |
| C[C@@H](O)[C@H]1C(=O)N2C(C(=O)O)=C(S[C@@H]3CN[C@H](C(=O)Nc4cccc(C(=O)O)c4)C3)[C@H](C)[C@H]12 [Ertapenem, reference compound] | – | – | – | – | – | – | – | – | – | – | – | – | – | – | – | – | – | Low | – | – | remaining at 2 h, 2 μM ([1]; monkey, plasma): 115%; Papp A→B at 120 min, 3 μM ([10]; Caco-2, pH 7.4): < 0.23 ×10⁻⁶ cm/s; Papp B→A at 120 min, 3 μM ([10]; Caco-2, pH 7.4): < 0.21 ×10⁻⁶ cm/s; recovery at 120 min, 3 μM ([10]; Caco-2, pH 7.4, Caco-2 Mean Recovery % A to B): < 116%; recovery at 120 min, 3 μM ([10]; Caco-2, pH 7.4, Caco-2 Mean Recovery % B to A): < 112%; remaining at 2 h, 2 μM ([4]; SD, rat, plasma, Plasma stability % Remaining): 69.1%; remaining at 2 h, 2 μM ([5]; beagle, dog, plasma): 70.7%; remaining at 2 h, 2 μM ([6]; male, CD-1, mouse, plasma, Plasma stability % Remaining, Mouse): 74.2%; remaining at 2 h, 2 μM ([7]; human, plasma, Plasma stability % Remaining): 77.5%; remaining at 1 h, 10 μM [8, 16]: 0%; remaining at 24 h, 10 μM [8, 16]: 0%; remaining at 6 h, 10 μM ([9]; fasted simulated intestinal fluid (FaSSIF), pH 6.5, FaSSIF Stability, % remaining, 6h): 86.8%; remaining at 24 h, 10 μM ([9]; fasted simulated intestinal fluid (FaSSIF), pH 6.5, FaSSIF Stability, % remaining, 24h): 85.8% |
| NCCSC=CC1=C(C(=O)O)N2C(=O)C(NC(=O)CSc3ccc(Cl)c(Cl)c3)C2SC1 (centres unmarked) [TBBL-0000306] | > 100 µM | 2.0% | 0.3 µM | 14.4 µM | > 100 µM | > 100 µM | > 100 µM | 23.0% | > 100 µM | 16.6% | > 100 µM | 33.8% | 9.5% | 110.19% | 92.52% | 102.19% | 98.38% | – | – | – | – |
| CC(=O)OCC1=C(C(=O)O)N2C(=O)[C@@H](NC(=O)CSc3ccncc3)[C@H]2SC1 [TBBL-0000063] | > 100 µM | – | 1.9 µM | 13.1 µM | > 100 µM | > 100 µM | 0.8 µM | – | > 100 µM | – | > 100 µM | – | – | 87.31% | 27.14% | 102.47% | 62% | Low | < 0.41 10-6 cm/s | < 0.37 10-6 cm/s | % bound to plasma, SD Rat (plasma proteins [11]): 42.4%; % bound to plasma, Beagle Dog (plasma proteins [12]): 27.8%; Caco-2 Mean Recovery % A to B (Caco-2 cells): < 87.73%; Caco-2 Mean Recovery % B to A (Caco-2 cells): < 102.87%; % bound to plasma, Human (plasma proteins [13]): 38.7%; % bound to plasma, CD-1 Mouse (plasma proteins [14]): 14.7%; % bound to plasma, Cynomolgus Monkey (plasma proteins [15]): 0.0% |
| CC=CC(=O)OCC1=C(C(=O)O)N2C(=O)[C@@H](NC(=O)C(=NO)c3cccs3)[C@H]2SC1 [TBBL-0000058] | > 100 µM | 22.0% | 1.1 µM | 8.7 µM | 84.6 µM | 56.8 µM | 0.5 µM | 60.9% | 41.8 µM | 81.2% | > 100 µM | 67.6% | 35.0% | 94.94% | 57.36% | 114.21% | 66.32% | Low | < 0.38 10-6 cm/s | 0.63 10-6 cm/s | Caco-2 Efflux Ratio (Caco-2 cells): > 1.68; Caco-2 Mean Recovery % A to B (Caco-2 cells): < 98.97%; Caco-2 Mean Recovery % B to A (Caco-2 cells): 111.16%; Efflux Transporter Substrate (Caco-2 cells): Poor or no |
| Cn1c(SCC2=C(C(=O)O)N3C(=O)[C@@H](NC(=O)Cc4ccccc4CN)[C@H]3SC2)nnc(O)c1=O [TBBL-0000460] | > 200 µM | 25.6% | 2 µM | 5.4 µM | 85.6 µM | 69.3 µM | 4.6 µM | 92.4% | 13.4 µM | 73.7% | > 200 µM | 88.8% | 90.4% | 102.88% | 85.68% | 96.2% | 86.61% | Low | 0.16 10-6 cm/s | 0.24 10-6 cm/s | % bound to plasma, SD Rat (plasma proteins [11]): 29.0%; % bound to plasma, Beagle Dog (plasma proteins [12]): 0.0%; Caco-2 Efflux Ratio (Caco-2 cells): 1.52; Caco-2 Mean Recovery % A to B (Caco-2 cells): 97.79%; Caco-2 Mean Recovery % B to A (Caco-2 cells): 106.35%; Efflux Transporter Substrate (Caco-2 cells): Poor or no; % bound to plasma, Human (plasma proteins [13]): 15.9%; % bound to plasma, CD-1 Mouse (plasma proteins [14]): 16.1% |
